A word on the EC50: it is the midpoint of the concentration-response curve.

Like-named read-outs stand apart in the source and are kept apart here.

EC50 data for 11 compounds are collected here from patent publication US12497408B2, “Tetracyclic compounds and methods for the treatment of Zika virus infection” (priority 2021, dated 2025).

The assay has as its system ZIKV. Briefly: ZIKV reporter virus-based antiviral screening on Huh7 cells. The class given is cell-based, Zika virus. The conditions noted are these: Huh7 cells infected with recombinant luciferase reporter ZIKV (MOI about 0.1), luciferase signal. From the text: Protocol for ZIKV reporter virus-based antiviral screening on Huh7 cells:
• Human hepatocyte-derived carcinoma cell line (Huh7) 2. Reagents • ViviRen™ Live Cell Substrate (Promega, Cat #E6492) or Nano Glo assay system (Promega: N1130) • White opaque 96-well TC-treated microplates (Corning, Cat #3916) • 96-well Clear V-Bottom TC-treated Microplate (Corning, Cat #3894) • Complete cell culture media: DMEM (Gibco, Cat #10569) supplemented with 10% FBS (HyClone, Cat #SH30071.03IH25-40)+1% MEM Non-Essential Amino Acids Solution 100×(Gibco, Cat #11140050)+1% Penicillin-Streptomycin (10,000 U/mL) (Gibco, Cat #15140122). • Assay media: DMEM media (Gibco, Cat #31053028) supplemented with 2% FBS, 2% GlutaMAX™ Supplement (Gibco Cat #35050061), 1% Sodium Pyruvate solution (Gibco, Cat #11360070), 1% MEM Non-Essential Amino Acids Solution 100× and 1% Penicillin-Streptomycin (10,000 U/mL). • Trypsin-EDTA solution (Gibco, Cat #25200056) 3. Virus • Recombinant ZIKV strain with Renilla luciferase gene (strain FSS-Rlu) or Nano luciferase gene (Strain PRV-Nano, Dakar-Nano) 4. Instruments • BioTek Cytation 5 or other plate-readers for chemiluminescence detection model. • Eppendorf plate centrifuge • Plate shaker • Eppendorf multichannel pipettes Procedures Day 1: Preparation of Cells • Human hepatocyte-derived carcinoma cell line (Huh7) cells were detached from a T-175 flask by using a Trypsin-EDTA solution. The detached cells were suspended in complete culture media in a sterile 50-ml conical tube. • The 50-ml conical tube was centrifuged at 1200×rpm for 3 min at room temperature. • The cells were resuspended in assay media. The cell numbers were counted, and the cells diluted to a density of 3×10^5 cells/ml. • The cells were plated at 50 μl cells per well in White opaque 96-well plates (assay plates). Gently shake the plates to ensure cells to attach to the plate evenly. • The plated cells were incubated in a humidified incubator (37° C. with 5% CO2). Day 2: Infection • 1) Nine serial (2-fold or 3-fold) concentrated compounds were prepared using 90% DMSO solution and DMSO controls in a clear V-bottom 96-well plate (compound plate). • For example:
• 2) The reporter virus stock was diluted to a concentration of 3×10^4 FFU (FFU: focus-forming unit)/ml using the assay media. 200 μl diluted virus per well was aliquoted into a clear V-bottom 96-well plate (mixing plate). • 3) 1 μl above 400×concentrated compound dilutions was added from the compound plate to each well of the mixing plate. The plates were shaken on a plate shaker for 5 min. • 4) 50 μl compound-virus mixture was added into each well of the assay plates (the MOI is about 0.1). The plates were shaken gently by mixing the virus evenly. • An example of the format for assay plate:
• control. • 5) The plates were centrifuged at 1000 rpm for 15 s. • 6) The plates were incubated at 37° C. with 5% CO2 in a humidified incubator for 48 hrs. Day 4: Read Luciferase Signals • 7) The ViviRen™ Live Cell Substrate was diluted in assay media for 3000× folds. 25 μl of diluted substrates was added into each well of the assay plates. • For Nano-Glo assay system, 50 μl diluted substrates (50×fold diluted from the stock in assay buffer) were added. • 8) The plates were incubated at room temperature for 5 min. • 9) Optimally, cell viability is measured using the Promega Cell-titer Glo kit (only used when ZIKV-Rlu was used for infection). • 10) Luciferase signals were read using the Cytation 5 with gain value of 120-150. Data Analysis • a. The luciferase signals from DMSO-treated groups (un-treated controls) were set as 100%. The relative luciferase signals were obtained by normalizing the luciferase signals from each dilution-treated group to that of the controls. • b.
A general note: A reporter such as luciferase makes a cellular process visible.

Take `COC(=O)N[C@H](C(=O)N1[C@@H]2C[C@@H]2C[C@H]1c1nc(Cl)c(-c2cc3c4c(c2)OCc2cc(-c5[nH]c([C@@H]6C[C@H]7C[C@H]7N6C(=O)[C@@H](NC(=O)OC)C(C)C)nc5Cl)cc(c2-4)OC3)[nH]1)C(C)C` [Compound 46, dimethyl ((2S,2′S)-((1R,1′R,3S,3′S,5R,5′R)-((5,10-dihydrochromeno[5,4,3-cde]chromene-2,7-diyl)bis(4-chloro-1H-imidazole-5,2-diyl))bis(2-azabicyclo[3.1.0]hexane-3,2-diyl))bis(3-methyl-1-oxobutane-1,2-diyl))dicarbamate]: for the setting “Zika virus, Huh-7, 48 h”, the concentration giving a half-maximal response (EC50) turned out to be 5 nM.
On the same count and under the same terms, to `COC(=O)N[C@H](C(=O)N[C@H](c1nc(Cl)c(-c2cc3c4c(c2)OCc2cc(-c5[nH]c([C@@H](NC(=O)[C@@H](NC(=O)OC)C(C)C)C(C)(C)C)nc5Cl)cc(c2-4)OC3)[nH]1)C(C)(C)C)C(C)C` [Compound 20, dimethyl ((2S,2′S)-(((1S,1′S)-((5,10-dihydrochromeno[5,4,3-cde]chromene-2,7-diyl)bis(4-chloro-1H-imidazole-5,2-diyl))bis(2,2-dimethylpropane-1,1-diyl))bis(azanediyl))bis(3-methyl-1-oxobutane-1,2-diyl))dicarbamate] belongs more than 368 nM; to `CC[C@H](C)[C@H](NC(=O)OC)C(=O)N1C[C@@H](C)C[C@H]1c1nc(Cl)c(-c2cc3c4c(c2)OCc2cc(-c5[nH]c([C@@H]6C[C@H](C)CN6C(=O)[C@@H](NC(=O)OC)[C@@H](C)CC)nc5Cl)cc(c2-4)OC3)[nH]1` [Compound 68, dimethyl ((2S,2′S,3S,3′S)-((3S,3′S,5S,5′S)-((5,10-dihydrochromeno[5,4,3-cde]chromene-2,7-diyl)bis(4-chloro-1H-imidazole-5,2-diyl))bis(3-methylpyrrolidine-5,1-diyl))bis(3-methyl-1-oxopentane-1,2-diyl))dicarbamate], 9.9 nM; to `COC(=O)N[C@H](C(=O)N1C[C@H](F)C[C@H]1c1nc(Cl)c(-c2cc3c4c(c2)OCc2cc(-c5[nH]c([C@@H]6C[C@@H](F)CN6C(=O)[C@@H](NC(=O)OC)C(C)C)nc5Cl)cc(c2-4)OC3)[nH]1)C(C)C` [Compound 53, dimethyl ((2S,2′S)-((3R,3′R,5S,5′S)-((5,10-dihydrochromeno[5,4,3-cde]chromene-2,7-diyl)bis(4-chloro-1H-imidazole-5,2-diyl))bis(3-fluoropyrrolidine-5,1-diyl))bis(3-methyl-1-oxobutane-1,2-diyl))dicarbamate], 7.3 nM.
Still for that read-out and setting: to `COC(=O)N[C@H](C(=O)N1C[C@@H](C)C[C@H]1c1nc(C(C)C)c(-c2cc3c4c(c2)OCc2cc(-c5[nH]c([C@@H]6C[C@H](C)CN6C(=O)[C@@H](NC(=O)OC)C(C)C)nc5C(C)C)cc(c2-4)OC3)[nH]1)C(C)C` [Compound 72, dimethyl ((2S,2′S)-((3S,3′S,5S,5′S)-((5,10-dihydrochromeno[5,4,3-cde]chromene-2,7-diyl)bis(4-isopropyl-1H-imidazole-5,2-diyl))bis(3-methylpyrrolidine-5,1-diyl))bis(3-methyl-1-oxobutane-1,2-diyl))dicarbamate] belongs 11.8 nM; to `COC(=O)N[C@H](C(=O)N1CCC[C@H]1c1nc(C(C)(C)C)c(-c2cc3c4c(c2)OCc2cc(-c5[nH]c([C@@H]6CCCN6C(=O)[C@@H](NC(=O)OC)C(C)C)nc5C(C)(C)C)cc(c2-4)OC3)[nH]1)C(C)C` [Compound 76, Dimethyl ((2S,2′S)-((2S,2′S)-((5,10-dihydrochromeno[5,4,3-cde]chromene-2,7-diyl)bis(4-(tert-butyl)-1H-imidazole-5,2-diyl))bis(pyrrolidine-2,1-diyl))bis(3-methyl-1-oxobutane-1,2-diyl))dicarbamate], 496 nM.
On to `COC(=O)N[C@H](C(=O)N1C[C@@H](F)C[C@H]1c1nc(Cl)c(-c2cc3c4c(c2)OCc2cc(-c5[nH]c([C@@H]6C[C@H](F)CN6C(=O)[C@@H](NC(=O)OC)C(C)(C)C(F)(F)F)nc5Cl)cc(c2-4)OC3)[nH]1)C(C)(C)C(F)(F)F` [Compound 52, dimethyl ((2S,2′S)-((3S,3′S,5S,5′S)-((5,10-dihydrochromeno[5,4,3-cde]chromene-2,7-diyl)bis(4-chloro-1H-imidazole-5,2-diyl))bis(3-fluoropyrrolidine-5,1-diyl))bis(4,4,4-trifluoro-3,3-dimethyl-1-oxobutane-l,2-diyl))dicarbamate], for which, where the note is “48 hrs, read-out: EC50”, the concentration for a half-maximal effect (EC50) is 103 nM.
Take `COC(=O)N[C@H](C(=O)N1C[C@@H](OC)C[C@H]1c1nc(Cl)c(-c2cc3c4c(c2)OCc2cc(-c5[nH]c([C@@H]6C[C@H](OC)CN6C(=O)[C@@H](NC(=O)OC)C(C)(C)C(F)(F)F)nc5Cl)cc(c2-4)OC3)[nH]1)C(C)(C)C(F)(F)F` [Compound 6, dimethyl ((2S,2′S)-((3S,3′S,5S,5′S)-((5,10-dihydrochromeno[5,4,3-cde]chromene-2,7-diyl)bis(4-chloro-1H-imidazole-5,2-diyl))bis(3-methoxypyrrolidine-5,1-diyl))bis(4,4,4-trifluoro-3,3-dimethyl-1-oxobutane-1,2-diyl))dicarbamate]: the EC50 (Zika virus, Huh-7, 48 h) was 4.9 nM.
Turning to `COC(=O)N[C@H](C(=O)N1C[C@H](C)C[C@H]1c1nc(Cl)c(-c2cc3c4c(c2)OCc2cc(-c5[nH]c([C@@H]6C[C@@H](C)CN6C(=O)[C@@H](NC(=O)OC)C(C)(C)C(F)(F)F)nc5Cl)cc(c2-4)OC3)[nH]1)C(C)(C)C(F)(F)F` [Compound 3, dimethyl ((2S,2′S)-((3R,3′R,5S,5′S)-((5,10-dihydrochromeno[5,4,3-cde]chromene-2,7-diyl)bis(4-chloro-1H-imidazole-5,2-diyl))bis(3-methylpyrrolidine-5,1-diyl))bis(4,4,4-trifluoro-3,3-dimethyl-1-oxobutane-1,2-diyl))dicarbamate], the EC50 (Zika virus, Huh-7, 48 h) came to 5.2 nM.
The same measure, in the same setting: under `COC[C@H]1C[C@@H](c2nc(Cl)c(-c3cc4c5c(c3)OCc3cc(-c6[nH]c([C@@H]7C[C@H](COC)CN7C(=O)[C@@H](NC(=O)OC)C(C)C)nc6Cl)cc(c3-5)OC4)[nH]2)N(C(=O)[C@@H](NC(=O)OC)C(C)C)C1` [Compound 45, dimethyl ((2S,2′S)-((3S,3′S,5S,5′S)-((5,10-dihydrochromeno[5,4,3-cde]chromene-2,7-diyl)bis(4-chloro-1H-imidazole-5,2-diyl))bis(3-(methoxymethyl)pyrrolidine-5,1-diyl))bis(3-methyl-1-oxobutane-1,2-diyl))dicarbamate] stands 19.3 nM; under `CC[C@H](C)[C@H](NC(=O)OC)C(=O)N1[C@H](c2nc(Cl)c(-c3cc4c5c(c3)OCc3cc(-c6[nH]c([C@@H]7C[C@@H]8CCC[C@@H]8N7C(=O)[C@@H](NC(=O)OC)[C@@H](C)CC)nc6Cl)cc(c3-5)OC4)[nH]2)C[C@@H]2CCC[C@@H]21` [Compound 36, dimethyl ((2S,2′S,3S,3′S)-((2S,2′S,3aS,3a′S,6aS,6a′S)-((5,10-dihydrochromeno[5,4,3-cde]chromene-2,7-diyl)bis(4-chloro-1H-imidazole-5,2-diyl))bis(hexahydrocyclopenta[b]pyrrole-2,1(2H)-diyl))bis(3-methyl-1-oxopentane-1,2-diyl))dicarbamate], 4.3 nM.
